From article PMC12298629, “New Derivatives of Caracasine Acid with Anti-Leukemic Activity and Limited Effectiveness in Spheroid Cultures” (Pharmaceuticals, 2025)

Tests used:
RAJI = assay: Cytotoxic MTS assay, Raji; assay type: cell-based; conditions: human leukemia cell line, 72 h, median of five assays
From the text: (§1) The cancer cell lines used in the cytotoxic assays were acquired from the American Tissue Culture Collection (ATCC) (Manassas, VA, USA) and maintained as described previously. The MRC-5 and BJ human fibroblasts were used as non-tumoral control cells. The (MRC-5 LD and BJ LD) are also human fibroblast cell lines resistant to doxorubicin. […] The Raji and Ramos cell lines correspond to B-cell leukemia. Other cells, such as U2OS, represent a child osteosarcoma, while HCT116 is a colorectal tumor cell line. (HCT116p53^−/−, Horizon Discovery Ltd., Cambridge, UK) is a similar cell line with its p53 gene knocked down, serving as a model of human cancer frequently associated with a poor prognosis. The cells were maintained in Nunc/corning 80 cm^2 plastic tissue culture flasks and cultured in a cell culture medium according to ATCC or Horizon recommendations (McCoy, DMEM/RPMI 1640 with 5 g/L glucose, 2 mM glutamine, 100 U/mL penicillin, […] streptomycin, 10% fetal calf serum, and NaHCO3). The compounds were freshly dissolved in DMSO. The final concentration of DMSO was 0.01% in the cell culture.
(§2) The in vitro cytotoxicity of compounds (1–7) was assessed using the standard 3-(4,5-dimethyl-thiazol-2yl)-5-(3-carboxymethoxyphenyl)-2-(sulfophenyl)-2H-tetrazolium (MTS). The assay was performed at the Institute of Molecular and Translational Medicine using a robotic platform (High-ResBiosolutions, Beverly, MA, USA). Cell suspensions were prepared and diluted according to the specific cell type and the expected target cell density (25,000–35,000 cells/mL, based on cell growth characteristics). An automatic pipettor (30 μL) was used to add cells into 384-well microtiter plates. All tested compounds were dissolved in 100% DMSO, and four-fold dilutions of the intended test concentrations were added in 0.15 μL aliquots at time zero to the microtiter plate wells by the echo acoustic non-contact liquid handler Echo550 (Labcyte, San Jose, CA, USA). The assays were accomplished in technical duplicates and at least three biological replicates. The cells were incubated with the tested compound for 72 h at 37 °C in a 5% CO2 atmosphere with 100% humidity. At the end of the incubation period, cells were assayed using the MTS test. Aliquots (5 μL) of the MTS stock solution were pipetted into each well and incubated for 1–4 h. After this incubation period, the optical density (OD) was measured at 490 nm using an Envision reader (PerkinElmer, Waltham, MA, USA). Tumor cell survival (TCS) was calculated using the following equation: TCS = (OD drug-exposed well/mean OD control wells) × 100%. The IC50 value, representing the concentration of the compound lethal to 50% of the tumor cells, was calculated from the corresponding dose-response curves using Dotmatics software (Updated version 2022, London, UK). After three days of incubation on the cancer cell lines and normal fibroblasts, the […] (IC50) were obtained. Five assays were performed for each cell line. The standard error of the assays was lower than 10%, as assessed by the triplicate assays.

MRC-5 = assay: Cytotoxic MTS assay, MRC-5 fibroblasts; assay type: cell-based; conditions: 72 h, median of five assays
From the text: as §1, §2

caspase 8 = assay: Caspase 8 activity in lysed HCT116 cells from 2D and spheroids; assay type: cell-based, human; conditions: HCT116 parental spheroids, 25 µM (cisplatin 15 μM), 12 h
Experimental: (§3) The assay was designed to evaluate the impact of various compounds on caspase activity using a standardized quantity of cell protein lysates after 12 h of incubation. The parental line HCT116 served as the basis for these experiments. Three distinct caspases were examined employing the fluorescence assay kits from Calbiochem (San Diego, CA, USA), specifically a fluorometric caspase-8 assay kit and a fluorimetric caspase-3 assay kit. Additionally, the fluorometric kit from Abcam was utilized to assess caspase-9 activity. Due to the variations in protocols for each caspase, separate plates were prepared for each assay, encompassing both two-dimensional (2D) cell cultures and spheroids. The compound concentrations were established at 25 µM, and assays were conducted in quintuplicate following a 12-h incubation period. The cells were harvested from the plates using the standard trypsin-EDTA solution (Merck Sigma Aldrich, Saint Louis, MO, USA), washed, and counted before lysis, as described in each kit. Cell processing adhered to the guidelines provided by the respective companies, and protein concentration was calculated and standardized using the standard BCA assay. Fluorescent readings were captured using the Enspire apparatus (Perkin-Elmer, MA, USA). Positive controls utilized included staurosporine at a concentration of 5 μM and cisplatin at 15 μM. The kits provided their own standards; however, to normalize all the readings between cultures, types, and treatments, the results were expressed as a percentage relative to the positive control, staurosporine, in 2D culture. […] A total of three separate assays were conducted for each caspase.

RAMOS = assay: Cytotoxic MTS assay, Ramos; assay type: cell-based; conditions: human leukemia cell line, 72 h, median of five assays
From the text: as §1, §2

K562 = assay: Cytotoxic MTS assay, K562; assay type: cell-based; conditions: 72 h, median of five assays
From the text: as §1, §2

HCT116 par spheroids = assay: Spheroid viability assay (CellTiter-Glo 3D), HCT116 parental spheroids; assay type: cell-based; conditions: 72 h, 100 pM to 50 μM
Experimental: (§4) Spheroid culture aims to analyze the drug’s effect on complex structures resembling solid tumors. The spheroids were prepared using the specific nonadherent plates for spheroid formation (Nunc Sphera, Thermo Fisher, Waltham, MA, USA) according to the simple protocol outlined by the manufacturer. The cell lines HCT116 parental, HCT116KOTp53, A549, and U2OS were cultured at a density of 2500 cells per well using medium containing 10% fetal calf serum and antibiotics: McCoy’s 5A medium for HCT116, F-12K (Kaighn’s Modified) for A549, and Dulbecco’s Modified Eagle Medium (DMEM). The cells were grown in culture for 48 h as recommended by the manufacturer and as described by Das et al. and Muñoz-Garcia et al..
(§5) The cell viability of the treated spheroids was assessed using the kit CellTiter-Glo 3D (Promega Corporation, Madison, WI, USA). The kit is designed to measure ATP as an indicator of viability, generating a luminescent readout that is more sensitive than colorimetric or fluorescence-based methods. The spheroids were cultivated with compounds at concentrations ranging from 100 pM to 50 μM in triplicate for 72 h, and the luminescence was measured using the Enspire apparatus (PerkinElmer). A standard curve was performed for each analysis as recommended by the manufacturer.

A549 spheroids = assay: Spheroid viability assay (CellTiter-Glo 3D), A549 spheroids; assay type: cell-based; conditions: 72 h, 100 pM to 50 μM
Experimental: as §4, §5

caspase 3 = assay: Caspase 3 activity in lysed HCT116 cells from 2D and spheroids; assay type: cell-based, human; conditions: 12 h; for Caspase 3 activity, spheroid culture: HCT116 parental spheroids, 25 µM (cisplatin 15 μM); for Caspase 3 activity, 2D culture: HCT116 parental, 25 µM
Experimental: as §3

HCT116KO53 spheroids = assay: Spheroid viability assay (CellTiter-Glo 3D), HCT116 p53 KO spheroids; assay type: cell-based; conditions: 72 h, 100 pM to 50 μM
Experimental: as §4, §5

BJ LD = assay: Cytotoxic MTS assay, BJ LD fibroblasts (doxorubicin-resistant); assay type: cell-based; conditions: doxorubicin-resistant human fibroblasts, 72 h, median of five assays
From the text: as §1, §2

MRC-5 LD = assay: Cytotoxic MTS assay, MRC-5 LD fibroblasts (doxorubicin-resistant); assay type: cell-based; conditions: 72 h, median of five assays
From the text: as §1, §2

U2OS spheroids = assay: Spheroid viability assay (CellTiter-Glo 3D), U2OS spheroids; assay type: cell-based; conditions: human tumors spheroids, 72 h, 100 pM to 50 μM
Experimental: as §4, §5

HCT116 par = assay: Cytotoxic MTS assay, HCT116 parental 2D; assay type: cell-based; conditions: 72 h, median of five assays
From the text: as §1, §2

CCRF-CEM = assay: Cytotoxic MTS assay, CCRF-CEM; assay type: cell-based; conditions: human leukemia cell line, 72 h, median of five assays
From the text: as §1, §2

BJ = assay: Cytotoxic MTS assay, BJ fibroblasts; assay type: cell-based; conditions: human fibroblasts, 72 h, median of five assays
From the text: as §1, §2

caspase 9 = assay: Caspase 9 activity in lysed HCT116 cells from 2D and spheroids; assay type: cell-based, human; conditions: HCT116 parental spheroids, 25 µM (cisplatin 15 μM), 12 h
Experimental: as §3

HCT116KO53 = assay: Cytotoxic MTS assay, HCT116 p53 knockout 2D; assay type: cell-based; conditions: 72 h, median of five assays
From the text: as §1, §2

U2OS = assay: Cytotoxic MTS assay, U2OS 2D; assay type: cell-based; conditions: human tumors 2D, 72 h, median of five assays
From the text: as §1, §2

A549 = assay: Cytotoxic MTS assay, A549 2D; assay type: cell-based; conditions: 72 h, median of five assays
From the text: as §1, §2

[1] = tested on: mixed spheroids of MRC-5 fibroblasts with HCT116 or HCT116 p53 KO cells; assay: Mixed spheroid viability assay; assay type: cell-based, human; conditions: mixed spheroids of fibroblasts and tumor cells
Experimental: as §5, with “Mixed spheroids were made by mixing MRC-5 fibroblasts with HCT116 or HCT116 p53 KO cells at a ratio of 1:1 (1000 cells/well); the cells were added immediately one after the other, and the formation of spheroids was monitored for 48 hrs. The mixed spheroids of both cell types had similar morphological features. The cell” for “The cell”

normal human leukocytes = tested on: normal human leukocytes; parameters: method as in PMID 31449809, PMID 35430982; conditions: 0.1 nM to 50 μM in 0.01% DMSO; cited from earlier work
[2] = HCT-116, human tumors spheroids
[3] = MRC5, doxorubicin-resistant human fibroblasts

Compound | Caspase 8 activity, spheroid culture (caspase 8) | Caspase 3 activity, spheroid culture (caspase 3) | Caspase 9 activity, spheroid culture (caspase 9) | IC50 (RAJI; Raji) | IC50 (MRC-5; MRC5, human fibroblasts) | IC50 (RAMOS; Ramos) | IC50 (K562; K562, human leukemia cell line) | IC50 (HCT116 par spheroids; [2]) | IC50 (A549 spheroids; A549, human tumors spheroids) | Caspase 3 activity, 2D culture (caspase 3) | IC50 (HCT116KO53 spheroids; [2]) | IC50 (BJ LD; Fibroblast) | IC50 (MRC-5 LD; [3]) | IC50 (U2OS spheroids; U2OS) | IC50 (HCT116 par; HCT-116, human tumors 2D) | IC50 (CCRF-CEM; CCRF-CEM) | IC50 (BJ; BJ) | IC50 (HCT116KO53; HCT-116, human tumors 2D) | IC50 (U2OS; U2OS) | IC50 (A549; A549, human tumors 2D) | other results
N.N.[Cl][Pt][Cl] [Cisplatin, reference compound] | caspase activation was observed | caspase activation was observed | caspase activation was observed |  |  |  |  |  |  |  |  |  |  |  |  |  |  |  |  |  | IC50 (RAJI): 0.68 µM; IC50 (MRC-5; human fibroblasts): 3.98 µM; IC50 (RAMOS): 0.56 µM; IC50 (K562; human leukemia cell line): 6.98 µM; IC50 (HCT116 par spheroids; human tumors spheroids): 15.9 µM; IC50 (A549 spheroids; human tumors spheroids): 49.8 µM; IC50 (HCT116KO53 spheroids; human tumors spheroids): 45.7 µM; IC50 (BJ LD): 17.8 µM; IC50 (MRC-5 LD; doxorubicin-resistant human fibroblasts): 23.5 µM; IC50 (U2OS spheroids): 21.8 µM; IC50 (HCT116 par; human tumors 2D): 12.5 µM; IC50 (CCRF-CEM): 4.62 µM; IC50 (BJ): 9.5 µM; IC50 (HCT116KO53; human tumors 2D): 8.34 µM; IC50 (U2OS): 9.56 µM; IC50 (A549; human tumors 2D): 9.51 µM; IC50 [1]: 26.8 µM
C=C1C(=O)C23CCC(C(=C)C)C(C)(CCC(=O)O)C2CCC1C3 (stereo not shown) [Compound 1, Caracasine Acid] | absence of caspase activity | absence of caspase activity | absence of caspase activity | 0.85 µM | 6.48 µM | 0.62 µM | 4.77 µM | > 50 µM | > 50 µM | significant changes | > 50 µM | 7.04 µM | 6.69 µM | > 50 µM | 1.73 µM | 0.38 µM | 6.88 µM | 1.52 µM | 1.79 µM | 5.98 µM | Effect on primary leukocytes (normal human leukocytes): no significant effect
C=C1C(=O)C23CCC(C(=C)C)C(C)(CCC(=O)OC4CCCCC4)C2CCC1C3 (stereo not shown) [Compound 3, Caracasine Acid Cyclohexyl Ester] | absence of caspase activity | absence of caspase activity | absence of caspase activity | 1.86 µM | 5.45 µM | 0.78 µM | 2.21 µM | > 50 µM | > 50 µM | significant changes | > 50 µM | 6.5 µM | 2.69 µM | > 50 µM | 1.59 µM | 0.38 µM | 7.38 µM | 1.63 µM | 1.66 µM | 2.69 µM | 
